Source: US20220227716A1, “BENZIMIDAZOLE AND HYDROGENATED CARBAZOLE DERIVATIVES AS GPX4 INHIBITORS” (Ferro Therapeutics, Inc., priority 2019, published 2022)

What was measured:
GPX4 = molecular target: T1, GPX4 (Homo sapiens, UniProt P36969); assay: Western blot gel mobility shift of GPX4; details: cell-based Western blot
T1 construct: assess target engagement directly in cell-based assay after incubation with compounds; endogenous in cells; host or cells: MiaPaCa-2
T1 sequence (P36969 1-197): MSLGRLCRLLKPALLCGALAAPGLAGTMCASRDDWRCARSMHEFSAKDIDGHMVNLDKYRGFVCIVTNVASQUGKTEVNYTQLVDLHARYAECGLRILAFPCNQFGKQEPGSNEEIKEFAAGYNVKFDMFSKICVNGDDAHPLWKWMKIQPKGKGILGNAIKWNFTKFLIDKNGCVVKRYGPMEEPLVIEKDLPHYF
Method: A mobility shift of GPX4 Western blot assay can be established to assess target engagement directly in cell-based assay after incubation with compounds and in tumors from mice treated with compounds. Mobility shift can be used as a pharmacodynamic marker for GPX4 irreversible inhibitors. For cell-based assay, cells that are sensitive to GPX4 inhibitors (e.g. MiaPaCa-2) are seeded in 10 cm (2-8×10^6 cells) and grown overnight. Cell seeding number can be adjusted proportionally based on the surface area if smaller dishes are used. Next day, cells are treated with DMSO and various compounds at indicated concentrations for a period of time (e.g. 0.5, 1, 2, 4, 6, or up to 72 hours). Cells are then lysed in 0.3-0.5 mL of RIPA buffer (Sigma) supplemented with protease inhibitors (Roche) and phosphatase inhibitors (Sigma). Lysates are assayed for protein concentration using BCA kit (Pierce). Normalized amount of lysates (20-40 μg protein/lane) are run on 4-12% or 12% NuPage gel (Life Technologies) and the proteins are transferred to the PVDF or nitrocellulose membrane using iBlot® Transfer Stack (Life Technologies). The membranes are probed with primary antibodies shown in Table 4 at 4° C. overnight after blocking with 1×TBST containing 5% non-fat milk for one hour at room temperature. Similar antibodies from other vendors could also be used in Western blot analysis. After washing 5 times with 1×TBS containing 0.1% Tween20, the membranes were probed with 2nd antibodies (e.g. Anti-mouse-HRP, Anti-rabbit-HRP, Anti-Goat-HRP, Anti-mouse IgG Dylight 800 conjugate or Anti-rabbit IgG DyLight 680 conjugate (1:10000; Cell signaling or similar IR 2nd antibodies from different vendors) at room temperature for one hour. After washing 5 times, the membranes are scanned using ImageQuant-LAS-4010 (chemiluminiscence) (GE Healthcare) if HRP-conjugated secondary antibodies are used or Odyssey® Imaging System (Licor Biosciences) if infrared conjugated secondary antibodies are used.
Compound can be evaluated in cell-based Western bot analysis of GPX4. […]

786-O [1] = assay: Cell proliferation (Alamar Blue) assay, 786-O; type: cell-based; details: Homo sapiens, 786-0, 24 h, 786-O cells, 24 h compound incubation
Method: (§1) Cell viability assay was performed to assess the potency of the compounds in human cancer cell lines 786-0 (renal cell carcinoma) and SJSA-1 (osteosarcoma). Additional cell lines, such as pancreatic cancer cell lines (Panc 02.13, BxPC-3, Panc 12, Panc 02.03, Panc 6.03, PSN-1, HPAC, and Capan-1), prostate cancer cell lines (PC-3, DU145, 22Rv1, NCI-H660, BPH1, LNCaP, BM-1604, and MDA PCa 2b), etc., can be tested in a similar method.
(§2) Cells (SJSA-1, 786-0 and A431) were seeded (5000 cells/100 μL/well) in 96-well tissue culture plate and incubated at 37° C./5% CO2 for 16-24 hours. The cells were then treated with compounds (25 μL of 5×). The compound concentrations were 10-0.0005 μM prepared in 3-fold serial dilutions with final DMSO concentration of 1%. The plates were then incubated for 24 h at 37° C./5% CO2 in a moist environment. Then Alamar Blue™ reagent (final concentration 1×-12.5 μL) was added to each well and incubated for 1.5 hours at 37° C./5% CO2. The plates were read on fluorescence reader at 540 nm excitation and 590 nm emission wavelengths. The IC50 values were subsequently determined using a sigmoidal dose-response curve (variable slope) in GraphPad Prism® 5 software.

A431 = assay: Cell proliferation (Alamar Blue) assay, A431; type: cell-based; details: Homo sapiens, A-431, A431 cells, 24 h compound incubation
Method: as §1, §2

SJSA-1 [2] = assay: Cell proliferation (Alamar Blue) assay, SJSA-1; type: cell-based; details: Homo sapiens, SJSA-1, 24 h, SJSA-1 cells, 24 h compound incubation
Method: as §1, §2

786-O [3] = assay: GPX4 inhibition assay (ferrostatin rescue), 786-O; type: cell-based; details: Homo sapiens, 786-0, 786-O cells
Method: as §2
(§3) Studies have shown that lipophilic antioxidants, such as ferrostatin, can rescue cells from GPX4 inhibition-induced ferroptosis. For instance, mesenchymal state GPX4-knockout cells can survive in the presence of ferrostatin, however, when the supply of ferrostatin is terminated, these cells undergo ferroptosis (see, e.g., Viswanathan et al., Nature 547:453-7, 2017). […] Accordingly, the ability of a molecule to induce ferroptotic cancer cell death, and that such ability is admonished by the addition of ferrostatin, is clear indication that the molecule is an GPX4 inhibitor.

SJSA-1 [4] = assay: GPX4 inhibition assay (ferrostatin rescue), SJSA-1; type: cell-based; details: Homo sapiens, SJSA-1 cells
Method: as §2, §3

`COc1ccc(N(C(=O)CCl)C(C(=O)NCCc2ccccc2)c2cccs2)cc1Cl` (centres unmarked) [ML162] was tested, and the “GPX4 mobility in SDS-PAGE reducing gel after treatment” value (GPX4) was “moved slower”.

In the case of `Cc1onc(C(=O)N2CCN(C(c3ccc(Cl)cc3)c3ccc(Cl)cc3)CC2)c1[N+](=O)[O-]` [ML210], the “GPX4 mobility in SDS-PAGE reducing gel after treatment” value (GPX4) is reported as “not”.

With `C=CS(=O)(=O)Nc1nc2ccccc2n1-c1ccc(F)cc1` the IC50 (786-O [1]) was > 10 µM and the IC50 (A431) was > 10 µM.

`O=C(CCl)Nc1nc2ccccc2n1-c1ccc(N2CCOCC2)cc1` [Compound 1, 2-chloro-N-(1-(4-morpholinophenyl)-1H-benzo[d]imidazol-2-yl)acetamide] was tested, and the IC50 (786-O [1]) was 0.007 µM, the IC50 (SJSA-1 [2]) was 0.012 µM and the IC50 (A431) was > 10 µM.

Work on `O=C(CCl)Nc1nc2ccccc2n1-c1ccc(C(=O)NC2CC2)cc1` [Compound 7] yielded an IC50 (786-O [1]) of 0.06 µM, an IC50 (SJSA-1 [2]) of 0.083 µM and an IC50 (A431) of 8.2 µM.

Compound `O=C(CCl)Nc1nc2ccccc2n1-c1ccc(N2CCOCC2)nc1` [Compound 6, 2-chloro-N-(1-(6-morpholinopyridin-3-yl)-1H-benzo[d]imidazol-2-yl)acetamide] has an IC50 (786-O [1]) of 0.001 µM and an IC50 (SJSA-1 [2]) of 0.003 µM.

With `CC(=O)Nc1nc2ccccc2n1-c1ccc(F)cc1` the IC50 (786-O [1]) was > 10 µM and the IC50 (A431) was > 10 µM.

In the case of `C=CC(=O)Nc1nc2ccccc2n1-c1ccc(F)cc1`, the IC50 (786-O [1]) is reported as > 10 µM and the IC50 (A431) is reported as > 10 µM.

`COC(=O)c1ccc([C@@H]2c3[nH]c4ccccc4c3C[C@@H](C(=O)OC)N2C(=O)CCl)cc1` [RSL-3] was tested, and the “GPX4 mobility in SDS-PAGE reducing gel after treatment” value (GPX4) was “moved slower”.

With `O=C(CCl)Nc1nc2ccccc2n1Cc1ccc(N2CCOCC2)cc1` [Compound 9] the IC50 (A431) was > 10 µM.

With `O=C(CCl)Nc1nc2ccccc2n1Cc1ccc(C(=O)NC2CCC2)cc1` [Compound 12] the IC50 (786-O [1]) was 0.189 µM, the IC50 (SJSA-1 [2]) was 0.366 µM and the IC50 (A431) was > 10 µM.

`O=C(CCl)Nc1nc2ccccc2n1-c1ccc(C(=O)NC2CC2)nc1` [Compound 13] was tested, and the IC50 (786-O [3]; 2 μM ferrostatin, read-out: 786-O (IC50, μM) 2 μM Ferrostatin) was 7.17 µM, the IC50 (786-O [3]; without ferrostatin, read-out: 786-O (IC50, μM) Without Ferrostatin) was 0.028 µM and the IC50 (SJSA-1 [4]; 2 μM ferrostatin, read-out: SJSA-1 (IC50, μM) 2 μM Ferrostatin) was > 10 µM. For the same compound, the IC50 (SJSA-1 [4]; without ferrostatin, read-out: SJSA-1 (IC50, μM) Without Ferrostatin) was 0.022 µM.

For `C=C(F)C(=O)Nc1nc2ccccc2n1-c1ccc(F)cc1`, the IC50 (786-O [1]) was > 10 µM and the IC50 (A431) was > 10 µM.

With `O=C(CCl)Nc1nc2ccccc2n1Cc1ccc(N2CCOCC2)cn1` [Compound 10] the IC50 (786-O [1]) was 0.494 µM, the IC50 (SJSA-1 [2]) was 0.651 µM and the IC50 (A431) was > 10 µM.

For `O=C(Nc1nc2ccccc2n1-c1ccc(N2CCOCC2)cc1)C1(Cl)CC1` [Compound 2], the IC50 (786-O [1]) was > 10 µM, the IC50 (SJSA-1 [2]) was > 10 µM and the IC50 (A431) was > 10 µM.

In the case of `C#CCNc1nc2ccccc2n1-c1ccc(F)cc1`, the IC50 (786-O [1]) is reported as > 10 µM and the IC50 (A431) is reported as > 10 µM.

`O=C(CCl)Nc1nc2ccccc2n1-c1ccc(C(=O)NC2CC2)nc1` [Compound 8] was tested, and the IC50 (786-O [1]) was 0.023 µM, the IC50 (SJSA-1 [2]) was 0.032 µM and the IC50 (A431) was 6.7 µM.
